Where no end group is shown, it is not given here.

The target in experiment [1] is T1, PTH/PTHrP receptor (Homo sapiens, UniProt Q03431).
T1 construct: expressed in transfected cells; host or cells: COS-7 cells, transient transfection, vector pcDNA-1
T1 sequence (Q03431 27-593): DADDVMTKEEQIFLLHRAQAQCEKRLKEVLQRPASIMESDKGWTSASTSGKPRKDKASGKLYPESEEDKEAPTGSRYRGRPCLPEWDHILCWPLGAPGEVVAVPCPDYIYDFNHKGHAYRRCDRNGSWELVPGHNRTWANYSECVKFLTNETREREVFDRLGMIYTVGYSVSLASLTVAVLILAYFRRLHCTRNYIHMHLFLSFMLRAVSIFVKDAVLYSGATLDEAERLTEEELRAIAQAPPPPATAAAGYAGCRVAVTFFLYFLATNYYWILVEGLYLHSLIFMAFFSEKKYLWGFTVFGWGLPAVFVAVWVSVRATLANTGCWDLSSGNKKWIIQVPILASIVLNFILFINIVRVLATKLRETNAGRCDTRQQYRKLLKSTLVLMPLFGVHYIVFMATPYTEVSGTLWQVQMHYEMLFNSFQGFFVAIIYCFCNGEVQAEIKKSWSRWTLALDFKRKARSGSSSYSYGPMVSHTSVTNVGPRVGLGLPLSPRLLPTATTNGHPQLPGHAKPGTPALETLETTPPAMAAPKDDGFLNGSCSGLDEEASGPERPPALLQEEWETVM
In words: Ligand-induced intracellular cAMP accumulation, COS-7 cells expressing human PTH/PTHrP receptor. It counts as cell-based. To be noted: for cAMP agonist activity in words, PTH/PTHrP receptor: COS-7 cells; for cAMP accumulation Maximum, PTH/PTHrP receptor: highest level of cAMP attained, basal 4.6 ± 0.2 not subtracted, 1h at room temperature. How it is done: (§1) The cDNAs encoding the human PTH/PTHrP receptor (Schipani, E. et al., Endocrinology 132:2157-2165 (1993)) and the human PTH-2 receptor (Usdin, T. et al., J. Biol. Chem. 270:15455-15458 (1995)) were carried on the expression vectors pcDNA-1 and pcDNAI/Amp (InVitrogen, San Diego, Calif.), respectively. COS-7 cells were cultured and transfected as described previously (Lee, C. et al., Mol. Endocrinol. 9:1269-1278 (1995)). Cells were transfected in 24-well plates using plasmid DNA (200 ng/well) purified by cesium chloride/ethidium bromide gradient centrifugation. Ligand binding and cAMP accumulation assays were performed three days after transfection, by which time the cell density reached 500,000±100,000 cells/well.
(§2) Transfected COS-7 cells were rinsed with […] of binding buffer. 200 μl of IBMX buffer (DMEM containing 2 mM IBMX, 1 mg/ml bovine serum albumin, 35 mM Hepes-NaOH, pH 7.4) and […] of binding buffer or binding buffer containing various amounts of a PTH or PTHrP analog were then added. The plates were incubated for 60 minutes at room temperature. The buffer was then withdrawn and the cells lysed by placing the plates on powdered dry ice and adding 0.5 ml of 50 mM HCl. The acid lysate was diluted 1/30 in dH2O, and an aliquot (5-50 μl) analyzed for cAMP content by radioimmunoassay. […] The cells were then incubated for 30 minutes at room temperature, and the resulting intracellular cAMP was measured by RIA. Data were analyzed using the AssayZap software (Elsevier Science Publishers BV, Cambridge, United Kingdom).

Experiment [2] has as its target T2, PTH-2 receptor (Homo sapiens, UniProt P49190).
T2 construct: expressed in transfected cells; host or cells: COS-7 cells, transient transfection, vector pcDNAI/Amp
In words: Antagonism of PTH-(1-34)-induced cAMP formation, COS-7 cells expressing PTH-2 receptor. The format is cell-based. To be noted: IBMX, 30 minutes at room temperature. How it is done: (§3) FIGS. 7A and 7B depicts the antagonism of PTH-(1-34)-induced cAMP formation in COS-7 cells expressing PTH/PTHrP or PTH-2 receptors. […] The corresponding basal cAMP levels in cells not treated with peptide were […] pmoles/well, respectively. Data are the mean (±s.e.m.) of two experiments, each performed in duplicate.
as §2

The target in experiment [3] is T1, PTH/PTHrP receptor. As to the kind of experiment: Antagonism of PTH-(1-34)-induced cAMP formation, COS-7 cells expressing PTH/PTHrP receptor. To be noted: IBMX, 30 minutes at room temperature. The format is cell-based. The method, then:
as §3, §2

Experiment [4] has as its target T2, PTH-2 receptor. As to the kind of experiment: Competition radioligand binding, COS-7 cells transfected with human PTH-2 receptor. The method, then:
as §1
(§4) Binding reactions were performed as described previously. Id. Each well (final volume: […]) contained 26 fmole of ^125I-[Nle^8,21,Tyr^34]rPTH(1-34)NH2 (100,000 CPM) and various amounts (0.4-300 pmole) of an unlabeled competitor ligand, both diluted in binding buffer (50 mM Tris-HCl, pH 7.7, 100 mM NaCl, 5 mM KCl, 2 mM CaCl, 5% heat-inactivated horse serum, 0.5% heat-inactivated fetal bovine serum). Incubations were at room temperature for 2 hours, except for experiments involving Scatchard analysis, which were performed at 4° C. for 6 hours. At the end of the binding reaction, the cells were rinsed 3 times with 0.5 ml of binding buffer, lysed with 0.5 ml of 5M NaOH, and the entire lysate was counted. Nonspecific binding of tracer (NSB), determined in wells containing 1 μM of [NleTyr^8,21,Tyr^34]rPTH-(1-34)NH2, was ˜1% of total counts added. Maximum specific binding (B0) was calculated as the total radioactivity bound to cells in the absence of unlabeled PTH ligand, minus NSB. […] For Scatchard analyses, homologous competition binding studies were performed that used ^125I-[-NleTyr^8,21,Tyr^34]rPTH-(1-34)NH2 (26 fmole/well) and varying amounts (1.2-300 pmol) of the same unlabeled ligand. Estimates of the number of receptors/cell derived from these studies assumed a single class of binding sites and a transfection efficiency of 20% (Abou-Samra, A. B. et al., Proc. Natl. Acad. Sci (USA) 89:2732-2736 (1992)).

Experiment [5] deals with T2, PTH-2 receptor. In words: Ligand-induced intracellular cAMP accumulation, COS-7 cells expressing human PTH-2 receptor. The format is cell-based. To be noted: for cAMP agonist activity in words, PTH-2 receptor: COS-7 cells; for cAMP accumulation Maximum, PTH-2 receptor: highest level of cAMP attained, basal 5.4 ± 0.3 not subtracted, 1h at room temperature. How it is done: as §1, §2

The target in experiment [6] is T1, PTH/PTHrP receptor. As to the kind of experiment: Competition radioligand binding, COS-7 cells transfected with human PTH/PTHrP receptor. How it is done:
as §1, §4

The target of experiment [7] is T3, human PTH-2 receptor (human, UniProt P49190 25-550). As to the kind of experiment: cell-based or functional assay.
Experiment [8] has as its target T3, human PTH-2 receptor. In words: radioligand competition (tracer 125I-[Nle8,21,Tyr34]rPTH-(1-34)NH2) on transfected COS-7 cells, RT 2 h. The method, then: Assays were performed for 2 hours at room temperature. Data are the mean (± s.e.m.) of IC$50$ values obtained from the number of experiments indicated (n).
Binding reactions were performed as described previously. Id. […] Incubations were at room temperature for 2 hours, except for experiments involving Scatchard analysis, which were performed at 4° C. for 6 hours. At the end of the binding reaction, the cells were rinsed 3 times with 0.5 ml of binding buffer, lysed with 0.5 ml of 5M NaOH, and the entire lysate was counted. […] Estimates of the number of receptors/cell derived from these studies assumed a single class of binding sites and a transfection efficiency of 20% (Abou-Samra, A. B. et al., *Proc. Natl. Acad. Sci* (*USA*) 89:2732–2736 (1992)).

Where [9] appears, read: agonist [Tyr34]hPTH-(1-34)NH2 1 nM.
The mark [10] stands for this setting: competition with radioligand, COS-7 cells.

T2 sequence (P49190 25-550): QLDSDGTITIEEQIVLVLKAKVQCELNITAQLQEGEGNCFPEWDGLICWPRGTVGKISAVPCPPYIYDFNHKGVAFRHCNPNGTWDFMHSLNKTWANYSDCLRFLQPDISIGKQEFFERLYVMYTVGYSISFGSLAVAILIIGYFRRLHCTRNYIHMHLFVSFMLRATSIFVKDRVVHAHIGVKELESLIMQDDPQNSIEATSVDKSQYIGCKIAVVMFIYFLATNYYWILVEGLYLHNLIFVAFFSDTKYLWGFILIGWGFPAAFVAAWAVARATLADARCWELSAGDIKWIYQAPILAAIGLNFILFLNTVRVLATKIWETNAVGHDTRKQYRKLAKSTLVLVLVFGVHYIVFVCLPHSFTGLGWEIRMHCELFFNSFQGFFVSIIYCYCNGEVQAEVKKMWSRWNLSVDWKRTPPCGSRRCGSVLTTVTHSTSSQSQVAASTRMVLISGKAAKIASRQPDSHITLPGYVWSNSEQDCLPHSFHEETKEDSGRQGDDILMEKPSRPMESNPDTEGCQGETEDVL
T3 sequence (P49190 25-550): as above

On to “[Trp^23,Tyr^36]hPTHrP-(1-36) [[W23, Y36]hPTHrP-(1-36)NH2]”, for which, on PTH/PTHrP receptor [1], the “cAMP agonist activity in words, PTH/PTHrP receptor” value is reported as “potent agonist” and the “cAMP accumulation Maximum, PTH/PTHrP receptor” value was 123 ± 14 pmoles/well. Moreover, on PTH-2 receptor [2] (setting [9]), the “Inhibition of PTH-(1-34)-induced cAMP activity in words, PTH-2 receptor” value was “at least as potent as [Leu^11,D-Trp^12]hPTHrP(7-34)NH2”. The “Effect on PTH-(1-34)-induced cAMP response in words, PTH/PTHrP receptor” value at PTH/PTHrP receptor [3] (setting [9]) is on record as “not an antagonist, but instead augmented the agonist response to PTH-(1-34)”. Further, the “Enhancement of binding potency compared to PTHrP-(1-36)” value at PTH-2 receptor [4] (PTH-2 receptor) is listed as 71 fold. For the same molecule, at PTH-2 receptor [5], the “cAMP agonist activity in words, PTH-2 receptor” value is “inactive” and the “cAMP accumulation Maximum, PTH-2 receptor” value is 12 ± 1 pmoles/well. Further, the “Binding affinity, fold stronger than PTHrP-(1-36)” value at PTH/PTHrP receptor [6] (PTH/PTHrP receptor) was 6 fold.

On to “[Tyr^34]hPTH-(1-34)NH2 [[Y34]hPTH-(1-34)NH2, reference compound]”, for which, on PTH/PTHrP receptor [1], the “cAMP agonist activity in words, PTH/PTHrP receptor” value was “full and potent agonists”; the “cAMP accumulation Maximum, PTH/PTHrP receptor” value amounted to 113 ± 13 pmoles/well. Besides, the “cAMP level in cells treated with agonist alone, PTH-2 receptor” value at PTH-2 receptor [2] (1 nM) is on record as 70±8 pmoles/well. Besides, on PTH/PTHrP receptor [3] (1 nM), the “cAMP level in cells treated with agonist alone, PTH/PTHrP receptor” value worked out at 167±17 pmoles/well. In addition, the “Binding in words, PTH-2 receptor” value on PTH-2 receptor [4] (setting [10]) is “bound with high apparent affinity”. At PTH-2 receptor [5], the “cAMP agonist activity in words, PTH-2 receptor” value was “potent agonist” and the “cAMP accumulation Maximum, PTH-2 receptor” value amounted to 81 ± 5 pmoles/well. Moreover, at PTH/PTHrP receptor [6] (PTH/PTHrP receptor, inhibition of radioligand binding), the “Binding potency, fold more potent than PTHrP-(1-36)” value is 4.8 fold. In addition, the “Binding in words, PTH/PTHrP receptor” value at PTH/PTHrP receptor [6] (setting [10]) was “fully inhibited binding of the radioligand”.

B1: Hybrid-5 hPTHrP-(1-18)/[Y34]hPTH-(19-34)NH2 (peptide)
peptide: AVSEHQLLHDKGKSIQDLERVEWLRKKLQDVHNY-NH2
modifications: also: radioiodinated in direct binding test
notes: Synthetic PTH/PTHrP hybrid ligand; also called radioiodinated hybrid-5 peptide
B1: in the experiment with human PTH-2 receptor [7], the “cAMP accumulation EC50” value was over 1000 nM and the “cAMP accumulation Maximum” value was 6.2 pmoles/well. Further, in the experiment with human PTH-2 receptor [8], the IC50 came out at 500 nM.

B2: [I5, W23, Y36]hPTHrP-(1-36)NH2 (peptide)
peptide: AVSEIQLLHDKGKSIQDLRRRFWLHHLIAEIHTAEY-NH2
notes: also called [Ile^5, Trp^23]PTHrP-(1-36); [Ile^5,Trp^32]PTHrP-(1-36) [sic]
On to B2, for which, in the experiment with human PTH-2 receptor [7], the “cAMP accumulation EC50” value turned out to be 0.5 nM and the “cAMP accumulation Maximum” value was 65 pmoles/well. In the experiment with human PTH-2 receptor [8], this molecule gave an IC50 of 10 nM.
